From patent US20110097405A1, “ESTRADIOL-CONTAINING DRUG DELIVERY SYSTEM” (Bayer Schering Pharma Aktiengesellschaft, priority 2008, published 2011)

Legend:
[1] = Clinical study (PK study): relative bioavailability and PK profile of estradiol after wafers vs oral tablet and intranasal spray; type: in vivo, healthy postmenopausal women; conditions: female, human
Description: Finally, it is the present inventors' experience that the serum estradiol values are somewhat dependent on the applied laboratory assay.
The following not-dose-normalised data, where all parameters are expressed in percentage of the respective Aerodiol® values, were obtained:
Estradiol may be determined by two different assays:
The analytes and their deuterated internal standards are extracted from 1.00 ml of human serum using BondElut Certify® solid-phase cartridges. Estradiol and estrone are eluted from the solid phase cartridges with ethyl acetate. The analytes undergo three separate derivatisation steps: (1) reaction with pentafluorobenzoyl chloride, (2) reaction with O-(2,3,4,5,6-pentafluorobenzyl)-hydroxylamine hydrochloride, and (3) reaction with MSTFA. The derivatised analytes are then separated by gas chromatography using a DB-17 fused silica capillary column and detected by tandem mass spectrometry using negative ion chemical ionization. A 1/(concentration)^2 weighted least-squares regression procedure is used to fit a linear function to the calibration data.
A 500 μl sample aliquot is fortified with 25 μl of internal standard working solution. Analytes are isolated through liquid-liquid extraction with 5.0 ml of 10:90 (v/v) ethyl acetate/hexane. The solvent is evaporated under a stream of nitrogen at 40-50° C. and the remaining residue is derivatizsd. The derivatised analytes are extracted into 3.0 m of 10:90 (v/v) ethyl acetate/hexane, the solvent is evaporated, and the remaining residue is reconstituted with 150 μl acetonitrile and 200 μl water. The final extract is analyzed via high-performance liquid chromatography with tandem mass spectrometry detection.

[2] = intranasal, cited from earlier work
[3] = Kuhnt et al.; cited from earlier work

Structure (SMILES)	bioavailability ([1]; in vivo)	bioavailability, usually ([1]; in vivo)	time until pre-treatment level is reached ([2]; after administration)	time to maximum plasma levels [2]	bioavailability after oral administration [3]	Cmax ([1]; serum, 90 ug)
CCCCC(=O)O[C@H]1CC[C@H]2[C@@H]3CCc4cc(O)ccc4[C@H]3CC[C@]12C [estradiol valerate]	30-60%	30-50%				
C[C@]12CC[C@@H]3c4ccc(O)cc4CC[C@H]3[C@@H]1CC[C@@H]2O [estradiol]			about 12 hours	10 to 30 min	about 5%	0.5 to 0.8 ng/mL
